The values that follow come from PubChem BioAssay (NCI).

What all share (assay): NCI-60 cell line screen, 48 h
Assay [1] has as its system CAKI-1 renal.
Assay [2] relates to CCRF-CEM leukemia.
Assay [3] has as its system IGROV1 ovarian.
Assay [4] concerns OVCAR-3 ovarian.
Assay [5] relates to OVCAR-8 ovarian.
The test system of assay [6] is PC-3 prostate.
Assay [7] deals with SF-539 CNS.
For assay [8], the system named is SK-MEL-28 melanoma.
Assay [9] has as its system SNB-19 CNS.
For assay [10], the system named is UO-31 renal.

Each structure is given as a SMILES string.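 Exposure lasted 48 hours, with cells grown in 96-well plates and compounds tested at five concentrations. GI50 is the concentration that inhibits growth by half. The concentration for full growth arrest is given as TGI.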 Where only a bound is given, the exact number is not on record here.

Regarding `CC1(O)COCCCCOc2c(CN)cccc2NC(=O)c2nc(cnc2N)-c2ccc(cc2)S(=O)(=O)C(C)(C)C1` (stereo not given), the GI50 in assay [1] was 1.22 µM; in [2], under 0.01 µM; in assay [3], 1.28 µM; in [4] it was 1.23 µM; in assay [5], 1.31 µM; in assay [6], 1.18 µM. Also, the GI50 is 0.03 µM in [7], 1.83 µM in [8], 1.33 µM in assay [9] and 1.06 µM in assay [10]. In addition, the TGI in assay [1] came out at 2.53 µM; in assay [2] it was 1.25 µM; in assay [3], 2.7 µM; in assay [4] it was 2.56 µM; in [5], 3.63 µM; in assay [6] it was 2.54 µM. Further, the TGI in [7] was 1.67 µM; in assay [8], 3.47 µM; in [9], 2.74 µM; in [10], 2.31 µM.
Consider `Oc1ccc(-c2nc3cc(F)ccc3s2)cc1`, for which the TGI in assay [1] was 43.9 µM; in assay [2] it was over 100 µM; in assay [3], 43.4 µM; in assay [4] it was 41.5 µM; in [5], over 100 µM; in assay [6], 60 µM. Further, the values for the TGI in [8], in assay [9] and in assay [10] were 42.8 µM, over 100 µM and 49.9 µM, respectively.
For the compound `CO/N=C(\C)c1cccc(Nc2nc3ccccc3c3occc23)c1`, the TGI in [1] turned out to be 25.4 µM; in assay [2], 37.7 µM; in assay [4], 33.1 µM; in assay [5] it was 33.4 µM; in [6], 28.2 µM; in assay [7], 26.9 µM. Moreover, the TGI in assay [8] is 27.6 µM; in assay [9], 31 µM.
`CCc1ccc2c(c1)C(=O)c1c-2n(CCCN)c(=O)c2cc([N+](=O)[O-])ccc12`: the GI50 in [1] is 1.55 µM; in assay [3], 1.22 µM; in assay [4], 1.58 µM; in assay [5], 1.02 µM; in [7], 1.6 µM; in assay [8] it was 1.68 µM. Further, the GI50 in [9] is 1.17 µM; in assay [10], 1.38 µM. Also, the TGI came out at 3.11 µM in [1]; 2.56 µM in assay [3]; 2.96 µM in [4]; 2.35 µM in [5]; 3.01 µM in assay [7]; 3.2 µM in assay [8]. Besides, the TGI in [9] amounted to 2.42 µM; in [10] it was 2.69 µM.
With `COc1cc([N+](=O)[O-])ccc1N1C(=O)C2c3[nH]c4ccccc4c3C3CCC(C(C)(C)C)CC3C2C1=O` (stereo not given), the TGI was 24.9 µM in assay [1]; over 100 µM in assay [2]; over 100 µM in assay [3]; over 100 µM in assay [4]; over 100 µM in assay [5]; over 100 µM in [6]. The TGI in assay [7] is over 100 µM; in assay [8] it was 34.7 µM; in [10] it was over 100 µM.
`Cc1ccc([N+](=O)[O-])cc1S(=O)(=O)Nc1ccc(C2=NOC(c3ccccc3O)C2)cc1` (stereo not given): the TGI was over 100 µM in assay [1]; over 100 µM in [2]; over 100 µM in assay [3]; 24.1 µM in assay [4]; over 100 µM in assay [5]; over 100 µM in assay [6]. Also, the TGI in assay [7] is over 100 µM; in assay [8], over 100 µM; in assay [9], 17.7 µM; in assay [10] it was 1.34 µM.
For `COc1cc([N+](=O)[O-])ccc1NC(=O)c1cccc([N+](=O)[O-])c1O`, the TGI in assay [1] was 48.8 µM; in [2], over 100 µM; in assay [3] it was over 100 µM; in assay [4], over 100 µM; in assay [5], over 100 µM; in assay [7], 75.2 µM. In addition, the TGI in assay [8] is over 100 µM; in [9] it was over 100 µM; in assay [10], 56.5 µM.
For `CNC(C)Cc1ccccc1OC` (stereo not given), the TGI in assay [1], in [2], in assay [3], in assay [4], in assay [5] and in [7] was over 100 µM in each case. For the same compound, the TGI in assay [8], in [9] and in assay [10] was over 100 µM throughout.
Turning to `O=C1OC2(OC2c2ccc(Cl)cc2)c2ccccc21` (stereo not given), the TGI in assay [1], in assay [2], in assay [3], in [4], in assay [5] and in [7] was over 100 µM throughout. The TGI in assay [8], in [9] and in [10] was over 100 µM in each case.
For the compound `C[N+](C)(C)CCN[N+]1(C)CCCc2ccccc21` (stereo not given), the TGI in assay [1], in assay [3], in [4], in assay [5], in assay [6] and in assay [7] was over 100 µM in each case. For the same compound, the TGI in assay [8], in assay [9] and in [10] was over 100 µM in each case.
In the case of `CC1(C=O)CCC23COC4(CCC5C6(C)CCC(OC7OCC(OC8OC(CO)C(O)C(OC9OC(CO)C(O)C(O)C9O)C8OC8OCC(O)C(O)C8O)C(O)C7OC7OC(CO)C(O)C(O)C7O)C(C)(C)C6CCC5(C)C4(C)CC2O)C3C1` (stereo not given), the TGI was 2.32 µM in assay [1]; 0.789 µM in assay [2]; 2.88 µM in assay [3]; 2.79 µM in [4]; 1.48 µM in [5]; 2.67 µM in assay [6]. Also, the TGI in [7] was 2.63 µM; in [9] it was 1.09 µM; in [10], 2.8 µM.
With `c1ccc([P+](c2ccccc2)(c2ccccc2)c2ccc(-c3ccc([P+](c4ccccc4)(c4ccccc4)c4ccccc4)cc3)cc2)cc1`, the TGI in [1] is over 100 µM; in [2] it was over 100 µM; in [3], 13.4 µM; in assay [4] it was 52.4 µM; in assay [5], 85.5 µM; in assay [6], 73.9 µM. Further, the TGI in assay [7], in assay [8] and in assay [9] was over 100 µM each time.
`CCOC(=O)Nc1cc2c(c(N)n1)N=C(c1ccc3ccccc3c1)CN2`: the TGI in assay [1] was 36.9 µM; in [2], 0.0944 µM; in assay [3] it was over 100 µM; in assay [4], 10.7 µM; in assay [5], 10.8 µM; in [6], 24.7 µM. The TGI in assay [7] was 0.427 µM; in assay [8] it was over 100 µM; in assay [10] it was over 62.9 µM.
